Columns and labels:
[1] = 100 kPa, Liquid; for viscosity: Capillary tube (Ostwald / Ubbelohde) method; for mass density: Vibrating tube method
[2] = xn = mol fraction of the nth substance listed; details: 100 kPa, Liquid, x1 = 1; for viscosity: Capillary tube (Ostwald / Ubbelohde) method; for mass density: Vibrating tube method

CCCCCCCCCC(=O)OCC [ethyl decanoate]
[1]
Details	mass density [kg/m3]	viscosity [mPa·s]
298.15 K	860.05	2.115
303.15 K	855.99	1.919
308.15 K	851.92	1.75
313.15 K	847.85	1.603
318.15 K	843.77	1.474
323.15 K	839.69	1.362

CCCCCCCCCCCC(=O)OCC [ethyl dodecanoate]
[1]
Details	mass density [kg/m3]	viscosity [mPa·s]
298.15 K	858.19	3.015
303.15 K	854.3	2.704
308.15 K	850.4	2.439
313.15 K	846.5	2.213
318.15 K	842.6	2.016
323.15 K	838.7	1.846

CCCCCCCC(=O)OCC [ethyl octanoate]
[1]
Details	mass density [kg/m3]	viscosity [mPa·s]
298.15 K	862.64	1.428
303.15 K	858.34	1.313
308.15 K	854.04	1.211
313.15 K	849.72	1.121
318.15 K	845.39	1.042
323.15 K	841.06	0.971

CCCCCCCCCCCCCCCC [hexadecane]
[1]
Details	mass density [kg/m3]	viscosity [mPa·s]
298.15 K	769.92	3.085
303.15 K	766.51	2.756
308.15 K	763.06	2.478
313.15 K	759.6	2.239
318.15 K	756.14	2.034
323.15 K	752.68	1.857

CCCCCCCCCCCCCCCC [hexadecane] + CCCCCCCC(=O)OCC
[2]
Details	mass density [kg/m3]	viscosity [mPa·s]
298.15 K	769.92	3.085
303.15 K	766.51	2.756
308.15 K	763.06	2.478
313.15 K	759.6	2.239
318.15 K	756.14	2.034
323.15 K	752.68	1.857

CCCCCCCCCCCCCCCC [hexadecane] + CCCCCCCCCC(=O)OCC
[2]
Details	mass density [kg/m3]	viscosity [mPa·s]
298.15 K	769.92	3.085
303.15 K	766.51	2.756
308.15 K	763.06	2.478
313.15 K	759.6	2.239
318.15 K	756.14	2.034
323.15 K	752.68	1.857

CCCCCCCCCCCCCCCC [hexadecane] + CCCCCCCCCCCC(=O)OCC
[2]
Details	mass density [kg/m3]	viscosity [mPa·s]
298.15 K	769.92	3.085
303.15 K	766.51	2.756
308.15 K	763.06	2.478
313.15 K	759.6	2.239
318.15 K	756.14	2.034
323.15 K	752.68	1.857
